Measurements taken from publication PMC12508063, “Chloroindazole based estrogen receptor β ligands with favorable pharmacokinetics promote functional remyelination and visual recovery” (Scientific Reports, 2025).
“And” between values parts separate entries of the source, which are not always exact repeats. Equal entries are not always repeated.

What was measured:
[1] = target: T1, ERβ (Homo sapiens, UniProt Q92731); assay: ER reporter gene assay in HEK 293 T cells (ER-luciferase reporter); format: cell-based; conditions: for Reporter gene assay raw data, ERb: ERb data block (head r19), 4 replicate columns; for ERb reporter gene assay raw data (response): four replicate columns per compound
T1 construct: expressed in transfected cells; host or cells: HEK 293 T cells

[2] = target: T2, ERα (Homo sapiens, UniProt P03372); assay: as above; format: cell-based; conditions: for Reporter gene assay raw data, ERa: 4 replicate columns
T2 construct: expressed in transfected cells; host or cells: HEK 293 T cells
T2 sequence (P03372 1-595): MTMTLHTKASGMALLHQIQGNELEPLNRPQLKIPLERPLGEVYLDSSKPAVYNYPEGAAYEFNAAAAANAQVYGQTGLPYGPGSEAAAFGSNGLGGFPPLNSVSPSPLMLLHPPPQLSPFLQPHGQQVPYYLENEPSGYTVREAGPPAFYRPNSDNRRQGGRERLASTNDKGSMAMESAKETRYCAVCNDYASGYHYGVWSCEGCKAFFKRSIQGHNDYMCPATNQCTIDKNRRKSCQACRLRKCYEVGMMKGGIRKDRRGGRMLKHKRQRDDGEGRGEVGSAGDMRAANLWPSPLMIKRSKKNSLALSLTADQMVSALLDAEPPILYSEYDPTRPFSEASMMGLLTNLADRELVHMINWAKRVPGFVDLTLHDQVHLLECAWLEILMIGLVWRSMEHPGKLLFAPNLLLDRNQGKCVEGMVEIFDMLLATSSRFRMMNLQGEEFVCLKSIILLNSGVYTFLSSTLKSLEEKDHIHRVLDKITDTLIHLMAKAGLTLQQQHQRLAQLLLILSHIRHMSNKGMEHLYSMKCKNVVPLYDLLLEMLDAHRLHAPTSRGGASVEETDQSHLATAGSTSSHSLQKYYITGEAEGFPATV

T1 sequence (Q92731 whole entry, species assumed): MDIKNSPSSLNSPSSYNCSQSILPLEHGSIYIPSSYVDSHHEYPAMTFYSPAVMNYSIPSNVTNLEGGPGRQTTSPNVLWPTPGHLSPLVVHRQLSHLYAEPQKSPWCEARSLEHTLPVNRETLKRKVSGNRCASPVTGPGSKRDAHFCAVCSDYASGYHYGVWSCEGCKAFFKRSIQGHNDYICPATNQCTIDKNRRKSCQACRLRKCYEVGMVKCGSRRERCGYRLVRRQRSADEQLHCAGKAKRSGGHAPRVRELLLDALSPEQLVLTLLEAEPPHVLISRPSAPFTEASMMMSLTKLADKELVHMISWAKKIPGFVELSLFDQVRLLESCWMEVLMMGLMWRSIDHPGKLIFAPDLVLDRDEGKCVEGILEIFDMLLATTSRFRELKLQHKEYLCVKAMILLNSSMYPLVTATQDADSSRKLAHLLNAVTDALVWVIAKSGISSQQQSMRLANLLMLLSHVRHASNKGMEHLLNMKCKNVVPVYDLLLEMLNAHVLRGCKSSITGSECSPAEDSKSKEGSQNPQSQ

SMILES: CCCc1c(-c2ccc(O)cc2)nn(-c2ccc(O)cc2)c1-c1ccc(O)cc1 [PPT, propylpyrazoletriol]
- Reporter gene assay raw data, ERb ([1]; Log M -6): 19.5014 and 20.0849 and 23.8882 and 22.6897
- ERb reporter gene assay raw data (response) ([1]; Log M -6): 21.485 and 20.205 and 17.3019 and 20.855
- Reporter gene assay raw data, ERb ([1]; Log M -6.47756): 16.4485 and 15.2513 and 19.8755 and 17.389
- ERb reporter gene assay raw data (response) ([1]; Log M -6.47756): 18.9594 and 20.0074 and 15.2776 and 15.7954
- Reporter gene assay raw data, ERb ([1]; Log M -6.95468): 10.4714 and 10.5487 and 14.4972 and 14.256
- ERb reporter gene assay raw data (response) ([1]; Log M -6.95468): 18.4622 and 14.9797 and 13.6041 and 14.8139
- Reporter gene assay raw data, ERb ([1]; Log M -7.4318): 5.476 and 4.22 and 5.578 and 6.583
- ERb reporter gene assay raw data (response) ([1]; Log M -7.4318): 10.9473 and 9.898 and 9.008 and 8.195
- Reporter gene assay raw data, ERb ([1]; Log M -7.91009): 1.07 and -0.6207 and 3.16 and 0.9592
- ERb reporter gene assay raw data (response) ([1]; Log M -7.91009): 6.169 and 4.563 and 6.678 and 4.2739
- Reporter gene assay raw data, ERb ([1]; Log M -8.3851): 0.7593 and -1.643 and 0.4997 and -2.03
- ERb reporter gene assay raw data (response) ([1]; Log M -8.3851): 3.945 and 3.96 and 6.88 and 1.445
- Reporter gene assay raw data, ERb ([1]; Log M -8.86328): -0.4322 and -1.466 and 2.716 and -1.501
- ERb reporter gene assay raw data (response) ([1]; Log M -8.86328): 5.736 and 3.2685 and 3.216 and 2.057
- Reporter gene assay raw data, ERb ([1]; Log M -9.34008): -0.1098 and -1.507 and 1.45 and -0.6901
- ERb reporter gene assay raw data (response) ([1]; Log M -9.34008): 3.967 and 2.823 and 2.379 and 1.871
- Reporter gene assay raw data, ERb ([1]; Log M -9.81816): -0.5451 and -0.7163 and 0.1509 and -1.511
- ERb reporter gene assay raw data (response) ([1]; Log M -9.81816): 1.577 and 2.9115 and 0.9432 and -0.07211
- Reporter gene assay raw data, ERb ([1]; Log M -10.2941): -1.084 and -0.1568 and -0.6795 and -0.3425
- ERb reporter gene assay raw data (response) ([1]; Log M -10.2941): 1.736 and 0.3306 and 0.3765 and -0.321
- Reporter gene assay raw data, ERb ([1]; Log M -10.7721): -1.226 and -1.1541 and -1.046 and -1.761
- ERb reporter gene assay raw data (response) ([1]; Log M -10.7721): -0.8597 and 0.03179 and -1.5452 and -1.38
- Reporter gene assay raw data, ERb ([1]; Log M -11.248): -0.3317 and 0.5222 and -1.104 and -1.502
- ERb reporter gene assay raw data (response) ([1]; Log M -11.248): -0.3358 and 0.6884 and 0.7035 and 0.7906
- ERb reporter gene assay raw data (response) ([1]; Log M -13): 0.5566 and -0.5566 and 0.8119 and -0.8119
- Reporter gene assay raw data, ERa ([2]; Log M -6, first ERa data block (head r2)): 86.0824 and 79.2296 and 78.3082 and 79.1573
- Reporter gene assay raw data, ERa ([2]; Log M -6, second ERa data block (head r34)): 87.9608 and 88.617 and 93.8527 and 87.2476
- Reporter gene assay raw data, ERa ([2]; Log M -6.47756, first ERa data block (head r2)): 90.8624 and 88.5783 and 89.3316 and 78.0129
- Reporter gene assay raw data, ERa ([2]; Log M -6.47756, second ERa data block (head r34)): 88.252 and 85.7322 and 87.7049 and 87.7177
- Reporter gene assay raw data, ERa ([2]; Log M -6.95468, first ERa data block (head r2)): 87.1769 and 84.3715 and 90.3303 and 89.4496
- Reporter gene assay raw data, ERa ([2]; Log M -6.95468, second ERa data block (head r34)): 95.811 and 91.5253 and 94.4371 and 90.1172
- Reporter gene assay raw data, ERa ([2]; Log M -7.4318, first ERa data block (head r2)): 90.4114 and 87.987 and 94.8392 and 90.7082
- Reporter gene assay raw data, ERa ([2]; Log M -7.4318, second ERa data block (head r34)): 106.107 and 97.2934 and 83.08 and 92.8748
- Reporter gene assay raw data, ERa ([2]; Log M -7.91009, first ERa data block (head r2)): 85.6554 and 95.12 and 98.5558 and 94.3071
- Reporter gene assay raw data, ERa ([2]; Log M -7.91009, second ERa data block (head r34)): 95.0594 and 87.5842 and 88.9618 and 84.8971
- Reporter gene assay raw data, ERa ([2]; Log M -8.3851, first ERa data block (head r2)): 92.5458 and 88.4315 and 85.0988 and 85.7612
- Reporter gene assay raw data, ERa ([2]; Log M -8.3851, second ERa data block (head r34)): 94.3547 and 89.3596 and 80.8197 and 80.3933
- Reporter gene assay raw data, ERa ([2]; Log M -8.86328, first ERa data block (head r2)): 84.8361 and 86.8057 and 82.3746 and 77.2465
- Reporter gene assay raw data, ERa ([2]; Log M -8.86328, second ERa data block (head r34)): 85.9296 and 87.1693 and 76.3853 and 76.3319
- Reporter gene assay raw data, ERa ([2]; Log M -9.34008, first ERa data block (head r2)): 74.7989 and 75.6545 and 77.292 and 82.2909
- Reporter gene assay raw data, ERa ([2]; Log M -9.34008, second ERa data block (head r34)): 84.5588 and 86.4988 and 76.9768 and 80.3165
- Reporter gene assay raw data, ERa ([2]; Log M -9.81816, first ERa data block (head r2)): 61.8395 and 65.1501 and 66.4827 and 65.905
- Reporter gene assay raw data, ERa ([2]; Log M -9.81816, second ERa data block (head r34)): 75.5533 and 73.0444 and 68.3421 and 69.495
- Reporter gene assay raw data, ERa ([2]; Log M -10.2941, first ERa data block (head r2)): 40.0072 and 40.9439 and 38.9576 and 38.1761
- Reporter gene assay raw data, ERa ([2]; Log M -10.2941, second ERa data block (head r34)): 46.869 and 47.8915 and 37.7547 and 39.1778
- Reporter gene assay raw data, ERa ([2]; Log M -10.7721, first ERa data block (head r2)): 19.4359 and 14.8698 and 17.3697 and 15.2983
- Reporter gene assay raw data, ERa ([2]; Log M -10.7721, second ERa data block (head r34)): 13.881 and 18.514 and 18.2618 and 16.0774
- Reporter gene assay raw data, ERa ([2]; Log M -11.248, first ERa data block (head r2)): 4.705 and 3.999 and 3.885 and 4.444
- Reporter gene assay raw data, ERa ([2]; Log M -11.248, second ERa data block (head r34)): 6.356 and 4.574 and 4.487 and 4.951
- ERa reporter gene assay raw data (response) ([2]; Log M -13, four replicate columns per compound): 0.8253 and -0.8253 and 1.478 and -1.478
